# Tests used:
# [1] = test system: corn plants (variety NK OCTET); assay: Reduced plant water use in corn (foliar spray, pot weighing); assay type: in vivo; settings: for % WU 0 DAA (PM): Table A3 (comparison trial), 0 DAA p.m.
# Method: (§1) Compounds were tested for their effect on reducing plant water use as follows. The compounds were applied by foliar spray to 12 day old corn plants (variety NK OCTET) grown in controlled environment plant growth chambers. All compounds were applied using an emulsifiable concentrate (EC) formulation that was diluted to the desired concentrations with water containing 0.4% of the adjuvant rape seed methyl ester. Plant water use during the day was assessed by repeated weighing of the pots in which the plants were grown before and after application of the compounds at the indicated times (expressed in days after application (DAA)). The water use data before application was used to correct any differences in water use arising due to non-treatment effects (e.g. due to differences in plant size). The untransformed water use values were subjected to an analysis of covariance, fitting the effect of treatment and using the baseline water use 1 day before application as a covariate. Application of the chemicals (0 DAA) took place approximately between 08:00 and 09:30 a.m. Water use (WU) was measured within day time (chamber light is on 06:00 to 20:00) at these timepoints: 0 DAA a.m. (10:30-12:50), 0 DAA p.m. (14:00-19:50).
# [2] = test system: soybean plants (variety S20-G7); assay: Reduced plant water use in soybean (foliar spray, pot weighing); assay type: in vivo; settings: Table A4, 125 μM foliar spray, water use vs negative control, average of 6 pots; for % WU 0 DAA (AM): 0 DAA a.m. (10:30-12:50); for % WU 0 DAA (PM): 0 DAA p.m. (14:00-19:50)
# Method: as §1, with “soybean” for “corn”, “S20-G7)” for “NK OCTET)”, “concentration” for “concentrations”, “additional surfactant (EXTRAVON 1 g/20 L).” for “0.4% of the adjuvant rape seed methyl ester.”, “covariate.” for “covariate. Application of the chemicals (0 DAA) took place approximately between 08:00 and 09:30 a.m. Water use (WU) was measured within day time (chamber light is on 06:00 to 20:00) at these timepoints: 0 DAA a.m. (10:30-12:50), 0 DAA p.m. (14:00-19:50).”
# Application of the chemicals (0 DAA) took place approximately between 08:00 and 09:30 a.m. Water use (WU) was measured within day time (chamber light is on 06:00 to 20:00) at these timepoints: 0 DAA a.m. (10:30-12:50), 0 DAA p.m. (14:00-19:50).
# [3] = corn, 500 μM foliar spray, water use vs negative control, average of 6 pots
SMILES,"% WU 0 DAA (PM) [1, 3] [%]",% WU 0 DAA (AM) [2] [%],% WU 0 DAA (PM) [2] [%],other results
"CCN1C(=O)CC(C)c2cc(CNS(=O)(=O)c3ccccc3)ccc21 (centres unmarked) [A, reference compound]",−24,–,–,–
"CCN1C(=O)OC(C)c2cc(CNS(=O)(=O)c3ccccc3)ccc21 (centres unmarked) [Compound 13.001, N-[(1-ethyl-4-methyl-2-oxo-4H-3,1-benzoxazin-6-yl)methyl]-benzenesulfonamide]",−40,–,–,"ABA agonist potency compared with compound A (in words) ([1]; concluded from Table A3, corn water use at 500 μM): more potent ABA agonist than dihydroquinolinone compound A"
"CCCN1C(=O)OC(C)c2cc(CNS(=O)(=O)c3ccccc3)ccc21 (centres unmarked) [Compound 14.001, N-[(4-methyl-2-oxo-1-propyl-4H-3,1-benzoxazin-6-yl)methyl]-benzenesulfonamide]",–,−49,−55,–
"CCCN1C(=O)OC(C)c2cc(CNS(=O)(=O)c3ccc(Cl)s3)ccc21 (centres unmarked) [Compound 14.048, 5-chloro-N-[(4-methyl-2-oxo-1-propyl-4H-3,1-benzoxazin-6-yl)methyl]thiophene-2-sulfonamide]",–,−51,−55,–
"CCN1C(=O)OC(C)c2cc(CNS(=O)(=O)c3ccccc3)cc(F)c21 (centres unmarked) [Compound 20.001, N-[(1-ethyl-8-fluoro-4-methy1-2-oxo-4H-3,1-benzoxazin-6-yl)methyl]benzenesulfonamide]",–,–,–,"% WU 0 DAA (AM) ([1]; Table A2 (further trial), corn, 500 μM foliar spray, water use vs negative control, 0 DAA a.m. (10:30-12:50), average of 6 pots): −37%; % WU ODAA (PM) ([1]; Table A2 (further trial), corn, 500 μM foliar spray, water use vs negative control, 0 DAA p.m. (14:00-19:50), average of 6 pots): −42%"
"CCCN1C(=O)OC(C)c2cc(CNS(=O)(=O)c3ccccc3)cc(F)c21 (centres unmarked) [Compound 25.001, N-[(8-fluoro-4-methyl-2-oxo-1-propyl-4H-3,1-benzoxazin-6-yl)methyl]benzenesulfonamide]",–,−48,−53,–
